Assay results as given in patent US5344843A, “Cat-1 inhibitors, pharmaceutical compositions and methods of use” (Hoffman-La Roche Inc., priority 1992, dated 1994).
Structures can show the parent of a compound that is named as a salt.

Columns and labels:
[1] = biological target: T1, CAT-1 (carnitine acyltransferase 1) (Rattus norvegicus, UniProt Q63704); experiment: Primary Screen--Inhibition of CAT-1 in isolated mitochondria; type: biochemical; settings: rat heart mitochondria, reduction of palmitoyl carnitine formation by 50%; read-out: Primary Screen IC50
T1 construct: This preparation is used as the isolated mitochondrial preparation; from tissue; host or cells: rat heart (atria removed), isolated mitochondria
T1 sequence (Q63704 1-772): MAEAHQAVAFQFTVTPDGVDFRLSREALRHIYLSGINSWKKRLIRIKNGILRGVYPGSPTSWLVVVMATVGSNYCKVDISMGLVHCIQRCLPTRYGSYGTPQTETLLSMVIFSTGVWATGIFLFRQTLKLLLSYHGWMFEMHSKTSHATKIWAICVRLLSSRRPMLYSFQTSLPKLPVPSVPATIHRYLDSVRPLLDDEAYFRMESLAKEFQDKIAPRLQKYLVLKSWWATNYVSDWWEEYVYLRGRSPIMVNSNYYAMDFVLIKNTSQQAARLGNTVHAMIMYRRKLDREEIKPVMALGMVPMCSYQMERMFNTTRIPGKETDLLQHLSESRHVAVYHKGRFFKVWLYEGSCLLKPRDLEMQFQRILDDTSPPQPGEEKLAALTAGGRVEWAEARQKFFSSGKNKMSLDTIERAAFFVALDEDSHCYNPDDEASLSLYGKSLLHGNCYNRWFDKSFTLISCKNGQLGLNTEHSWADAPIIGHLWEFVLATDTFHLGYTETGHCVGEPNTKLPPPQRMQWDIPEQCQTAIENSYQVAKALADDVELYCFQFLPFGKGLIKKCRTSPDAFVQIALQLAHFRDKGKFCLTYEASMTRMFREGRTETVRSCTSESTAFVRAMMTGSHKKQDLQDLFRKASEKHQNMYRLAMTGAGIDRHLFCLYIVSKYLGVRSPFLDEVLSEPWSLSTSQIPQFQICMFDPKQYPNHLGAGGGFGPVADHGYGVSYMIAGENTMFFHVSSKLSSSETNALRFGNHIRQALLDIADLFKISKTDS
Procedure: Primary Screen--Inhibitors of CAT-1 in 1Mitochondria
(a). Preparation of Mitochondria
The heart is rapidly removed from an anesthetized rat (sodium pentabarbitol) and placed in ice-cold homogenization buffer (sucrose, 250 mM; Tris, 10 mM; EDTA, 1 mM; BSA, 0.01%; pH=7.4). The atria and extraneous tissue are removed and the remainder is chopped with scissors. The pieces are rinsed in homogenization buffer before being homogenized in 10 mL of the same buffer for 5-7 seconds. The homogenate is then diluted with homogenization buffer (40 total volume) and centrifuged at 200 g for 20 minutes. The supernatant is withdrawn and centrifuged at 7000 g for 20 minutes and the resulting pellet is isolated, resuspended in 40 mL of homogenization buffer and centrifuged once more at 7000 g for 20 minutes. The isolated pellet is resuspended in 10 mL of homogenization buffer and stored at 4° C. until use. This preparation is used as the isolated mitochondrial preparation.
(b). Inhibition of CAT-1 assay
Isolated mitochondria (20 μL) are incubated with 60 μL of Tris/sucrose buffer (sucrose, 500 mM; Tris, 20 mM; KCl, 100 mM; EDTA, 2 mM; pH=7.0 plus 83 μM palmitoyl CoA, and BSA, 0.8 mg/mL and 10^-4 to 10^-10 M of the drug to be tested. After 10 minutes at 30° C., the reaction is started by addition of 10 μL of ^3 H-carnitine (final concentration=250 μM). After 5 minutes, the reaction is terminated by the addition of ice cold 70% perchloric acid (PCA). The precipitated solids so formed, containing the insoluble product of the enzyme palmitoyl carnitine, are captured on filter paper. The filter paper is washed with 7% PCA, then dried and placed in scintillation vials with 10 mL of scintillant (Aquasol, New England Nuclear) and counted for radioactivity. The rate of the reaction is assessed by the difference in radioactivity between zero time and five minutes in the absence of test compound. The ability of test compounds at selected concentrations to inhibit CAT-1 is determined by their ability to reduce the formation of the radioactive product. The IC50 of the test compound is the concentration of test compound that reduces the formation of radioactive product by 50%.

[2] = biological target: T1, CAT-1 (carnitine acyltransferase 1); experiment: Secondary Screen--Inhibition of CAT-1 in intact cardiac myocytes (hypoxia-induced increase in long-chain acylcarnitines); type: cell-based; set-up: inhibition: dose or concentration left out as unconfirmed; settings: isolated rat cardiac myocytes; for IC50: 50% inhibition of hypoxia-induced increase in long-chain acylcarnitines; for inhibition: hypoxia
Procedure: Secondary Screen--Inhibition of CAT-1 in intact Cardiac Myocytes
(a) Preparation of Isolated Rat Cardiac Myocytes
Four hearts are excised from anesthetized rats and perfused retrogradly via the Langendorf technique. Each heart receives 100 mL of Krebs (NaCl, 118.4 mM; KCL, 4.6 mM; NaH2 PO4, 1.0 mM; NaHCO3, 20 mM; MgSO4, 2 mM; CaCl2, 50 μM; glucose, 11.0 mM), 100 mL of Ca++ free Krebs and finally 100 mL of 0.5% collagenase (Boehringer Mannhelm, type 1) in Hepes (NaCl, 115 mM; KCl, 5 mM; sucrose, 35 mM; glucose, 10 mM; Hepes, 10 mM; taurine, 4 mM; MgSO4, 2 mM; CaCl2, 50 μM). After these perfusions, the hearts are chopped into pieces, approx. 0.5 cm×0.5 cm and placed in four 125 mL plastic bottles along with 25 mL of collagenase/Hepes situated in a water bath maintained at 35° C. The pieces of cardiac tissue in each bottle are agitated by using a Harvard respirator connected to four glass syringes, which sucks the tissue up and down each tube during each respiratory cycle. After fifteen minutes, the collagenase/Hepes is removed and replaced with fresh collegenase/Hepes and the process repeated. The collegenase/Hepes from the subsequent fifteen minute harvests are centrifuged at 500 g to pellet the cells which are then resuspended in Hepes buffer. After six harvests, all cells are pelleted, resuspended in 2×26.5 mL of Hepes plus BSA (350 mg) and layered on top of 2×percoll gradients (21.15 mL percoll, 2.35 mL NaCl, 6 drops acetic acid). This is centfifuged at 3000 g for eight minutes forming a percoll gradient which results in viable cells being separated from damaged cells. The viable cells are removed, washed with Hepes and finally resuspended in 25 mL of Hepes.
The isolated cardiac myocytes (2 mL; approximately 1×10^6 cells) are separated into six glass pods. Into four of these are placed selected concentrations of the compound to be tested, and the cells are incubated for twenty minutes, after which the pods are centrifuged at 300 g for three minutes. 300 μL of normoxic Hepes is placed in one of the pods not containing compound and then all pods are placed in a hypoxic chamber (N2 atmosphere). Oxygen is fed via small bore steel tubes to the pod containing the normoxic buffer, while the other five pods receive pre-purified argon (99.998% pure). After two minutes, Hepes (pre-gassed with argon for at least twelve hours) is fed into the five hypoxic pods. This hypoxic environment (pO2 <10 mm Hg) is maintained for twenty minutes, after which the cells and pods are frozen by contact with a metal block precooled in liquid N2. The pods are then removed from the chamber and stored at -70° C. The carnitine assay is performed, as described below in (c), to determine the amount of long-chain acylcarnitine in the cells from the normoxic, hypoxic and hypoxic plus compound samples. […] Thus the IC50 in this screen is the concentration of test compound which produces a 50% inhibition of the hypoxia-induced increase in long-chain acylcarnitines.
(c) Long-chain Acylcarnitine Assay.
The frozen cell samples are thawed, mixed and homogenized with 40 μL of 70% PCA. The homogenate is transferred to eppendorf tubes while the homogenization tube and the glass pod is rinsed with 500 μL of 7% PCA, with the rinse being added to the eppendorf tube. This is then centrifuged at 1000 g for two minutes to pellet the precipitate (containing the long-chain acylcarnitine) and the supernatant is discarded. The pellet is washed twice with 500 μL of 7% PCA, the supernatants being discarded. The pellet is then hydrolyzed (to separate the acyl unit from carnitine to yield free carnitine) by the addition of 200 μL of aleionized H2 O and 50 μL of 5N KOH and incubated at 70° C. for ninety minutes.

Row | IC50 [1] [nM] | IC50 [2] [nM] | SMILES | inhibition [2] [%]
1 | 2000 | 12000 | O=C(O)C(=O)c1ccc(OCCCCc2ccccc2)cc1 [Example 25, 4-[(4-phenybutyl)oxy]-alpha-oxobenzeneacetic acid] | 
2 | 170 | 3500 | O=C(O)C(=O)c1ccc(OCCCCOc2ccc3ccccc3c2)cc1 [Example 88, 4-[[4-(2-naphthalenyloxy)butyl]oxy]-alpha-oxobenzeneacetic acid] | 
3 | 400 | 25000 | O=C(O)C(=O)c1ccc(C(=O)NCCOc2ccc3ccccc3c2)cc1 [Example 177, 4-[[[2-(2-naphthalenyloxy)ethyl]amino]carbonyl]-alpha-oxobenzeneacetic acid] | 
4 | 500 | 37000 | O=C(O)C(=O)c1ccc(OCCCc2ccccc2)cc1 [Example 23, 4-[(3-phenylpropyl)oxy]-alpha-oxobenzeneacetic acid] | 
5 | 400 | 8000 | O=C(O)C(=O)c1ccc(OCCCC(=O)c2ccc3ccccc3c2)cc1 [Example 282, 4-[[4-(2-naphthalenyl)-4-oxobutyl]oxy]-alpha-oxobenzeneacetic acid] | 
6 | 300 | 9000 | O=C(O)C(=O)c1ccc(OCCOc2ccc3ccccc3c2)cc1Cl [Example 187, 2-chloro-4-[2-(2-naphthalenyloxy)ethoxy]-alpha-oxobenzeneacetic acid] | 
7 | 400 | 20000 | O=C(O)C(=O)c1ccc(OCCCCOc2ccccc2)cc1 [Example 71, alpha-oxo-4-[[(4-phenoxy)butyl]oxy]benzeneacetic acid] | 
8 | 580 | 2000 | O=C(O)/C(=N\O)c1ccc(OCCOc2ccc3ccccc3c2)cc1 [Example 301, (Z)-alpha-(hydroxyimino)-4-[2-(2-naphthalenyloxy)ethoxy]benzeneacetic acid] | 
9 | 80 | 12000 | O=C(O)C(=O)c1ccc(OCCOc2ccc3ccccc3c2)c(Cl)c1 [Example 185, 3-chloro-4-[2-(2-naphthalenyloxy)ethoxy]-alpha-oxobenzeneacetic acid] | 
10 | 40 | 75000 | O=C(OCCOCCOCCO)C(=O)c1ccc(OCCOc2ccc3ccccc3c2)cc1 [Example 105, 4-[[2-(2-naphthalenyloxy)ethyl]oxy]-alpha-oxobenzeneacetic acid 2-[2-(2-hydroxyethoxy)ethoxy]ethyl ester] | 
11 | 9000 | 1000 | CC(C)c1cccc(-c2ccc(F)cc2)c1/C=C/COc1ccc(C(=O)C(=O)O)cc1 [Example 229, (E)-4-[3-[4'-fluoro-3-(1-methylethyl)[1,1'-biphenyl]-2-yl]-2-propenyloxy]-alpha-oxobenzeneacetic acid] | 
12 | 37400 | 5000 | N[C@H](C(=O)O)c1ccc(OCCOC2CCCCCCC2)cc1 [Example 18, (S)-alpha-amino-4-[[2-(cyclooctyloxy)ethyl]oxy]benzeneaceticacid hydrochloride] | 
13 | 240 | 900 | O=C(O)/C(=N/O)c1ccc(OCCOc2ccc3ccccc3c2)s1 [Example 302, (Z)-alpha-(hydroxyimino)-5-[2-(2-naphthalenyloxy)ethoxy]-2-thiopheneaceticacid] | 
14 | 80 | 3000 | O=C(O)C(=O)c1ccc(OCCOc2ccc3ccccc3c2)cc1 [Example 86, 4-[[2-(2-naphthalenyloxy)ethyl]oxy]-alpha-oxobenzeneacetic acid] | 
15 | 30 | 800 | O=C(O)C(=O)c1ccc(OCC(=O)c2cccc3ccccc23)cc1 [Example 284, 4-[2-(1-naphthalenyl)-2-oxoethoxy]-alpha-oxobenzeneacetic acid] | 
16 | 830 | 7000 | O=C(O)C(=O)c1c(F)cc(OCCOc2ccc3ccccc3c2)cc1F [Example 201, 2,6-difluoro-4-[2-(2-naphthalenyloxy)ethoxy]-alpha-oxobenzeneacetic acid] | 
17 | 90 | 1000 | CN(C)CCOC(=O)C(=O)c1ccc(OCCOc2ccc3ccccc3c2)cc1 [Example 106, 4-[[2-(2-naphthalenyloxy)ethyl]oxy]-alpha-oxobenzeneacetic acid 2-(dimethylamino)ethyl ester] | 
18 | 2100 | 5000 | O=C(NO)C(=O)c1ccc(OCCOc2ccc3ccccc3c2)s1 [Example 300, N-hydroxy-5-[2-(2-naphthalenyloxy)ethoxy]-alpha-oxo-2-thiopheneacetamide] | 
19 | 40 | 1200 | O=C(OCC(O)CO)C(=O)c1ccc(OCCOc2ccc3ccccc3c2)cc1 (racemic) [Example 104, rac.-4-[[2-(2-naphthalenyloxy)ethyl]oxy]-alpha-oxobenzeneacetic acid 2,3-dihydroxypropyl ester] | 
20 | 80 | 12000 | O=C(O)C(=O)c1ccc(OCCCc2ccc3ccccc3c2)cc1 [Example 94, 4-[[3-(2-naphthalenyl)propyl]oxy]-alpha-oxobenzeneacetic acid] | 
21 | 1500 | 5000 | CO/N=C(\C(=O)O)c1ccc(OCCOc2ccc3ccccc3c2)s1 [Example 307, (E)-alpha-(methoxyimino)-5-[2-(2-naphthalenyloxy)ethoxy]-2-thiopheneaceticacid] | 
22 | 1750 | 3800 | O=C(O)C(F)(F)c1ccc(OCCOc2ccc3ccccc3c2)cc1 [Example 13, alpha, alpha-difluoro-4-[[2-(2-naphthalenyloxy)ethyl]oxy]benzeneacetic acid] | 
23 | 800 | 300 | O=C(O)C(=O)c1ccc(SCCOC2CCCCCCC2)cc1 [Example 173, 4-[[2-(cyclooctyloxy)ethyl]thio]-alpha-oxobenzeneacetic acid] | 
24 | 1800 | 20000 | O=C(O)C(=O)c1ccc(C#CCOc2ccc3ccccc3c2)cc1 [Example 142, 4-[3-(2-naphthalenyloxy)-1-propynyl]-alpha-oxobenzeneacetic acid] | 
25 | 60 |  | O=C(O)C(=O)c1ccc(OCC(=O)N2CCC(c3ccccc3)CC2)cc1 [Example 245, alpha-oxo-4-[2-oxo-2-(4-phenyl-1-piperidinyl)ethoxy]benzeneacetic acid] | 33
26 | 400 | 7500 | Cc1cc(C(=O)C(=O)O)ccc1OCCOc1ccc2ccccc2c1 [Example 181, 3-methyl-4-[2-(2-naphthalenyloxy)ethoxy]-alpha-oxobenzeneacetic acid] | 
27 | 1500 | 40000 | O=C(O)C(=O)c1ccc(OCCOC23CC4CC(CC(C4)C2)C3)cc1 [Example 103, alpha-oxo-4-[[2-[tricyclo(3.3.1.1-3,7)dec-1-yloxy]ethyl]oxy]benzeneacetic acid] | 
28 | 40 | 250 | O=C(OCC(O)CO)C(=O)c1ccc(OCCOc2ccc3ccccc3c2)s1 (racemic) [Example 5, rac.-5-[[2-(2-naphthalenyloxy)ethyl]oxy]-alpha-oxo-2-thiopheneacetic acid 2,3-dihydroxypropyl ester] | 
29 | 900 | 20000 | O=C(O)C(=O)c1ccc(OCCOC2CCCCC2)cc1 [Example 99, 4-[[2-(cyclohexyloxy)ethyl]oxy]-alpha-oxobenzeneacetic acid] | 

Row | SMILES | IC50 [1] [nM] | IC50 [2] [nM] | inhibition [2] [%]
30 | CCC(C)(C)C(=O)OCc1cccc(C)c1OCCOc1ccc(C(=O)C(=O)O)cc1 [Example 136, 4-[[2-[2-[(2,2-Dimethyl-1-oxobutoxy)methyl]-6-methylphenoxy]ethyl]oxy]-alpha-oxobenzeneacetic acid (2:1) hydrate] | 7700 | 900 | 
31 | CCC(C)(C)C(=O)OCc1cccc(C)c1C#CCOc1ccc(C(=O)C(=O)O)cc1 [Example 212, 4-[3-[2-[(2,2-dimethyl-1-oxobutoxy)methyl]-6-methylphenyl]-2-propynyloxy]-alpha-oxobenzeneacetic acid (1:1) morpholine salt] | 470 |  | 47
32 | CCC(C)(C)C(=O)Oc1cccc2ccc(OCCOc3ccc(C(=O)C(=O)O)cc3)cc12 [Example 134, 4-[[2-[8-(2,2-dimethyl-1-oxobutoxy)-2-naphthalenyloxy]ethyl]oxy]-alpha-oxobenzeneacetic acid] | 600 | 400 | 
33 | CCC(C)(C)C(=O)OCc1cccc(C)c1OCCOc1ccc(/C(=N/OC)C(=O)O)cc1 [Example 304, (Z)-4-[2-[2-[(2,2-Dimethyl-1-oxobutoxy)methyl]-6-methylphenyloxy]ethoxy]-alpha-methoxyiminobenzeneacetic acid] | 3300 | 5000 | 
34 | CCC(C)(C)C(=O)OCc1cccc(C)c1CCCOc1ccc(C(=O)C(=O)O)cc1 [Example 223, 4-[3-[2-[(2,2-dimethyl-1-oxobutoxy)methyl]-6-methylphenyl]propoxy]-alpha-oxobenzeneacetic acid] | 1100 | 90 | 
